This is an account of results in patent US6054441A, “Oxypurine nucleosides and their congeners, and acyl derivatives thereof, for improvement of hematopoiesis” (priority 1995, dated 2000).

Assay [1] relates to hematopoietic recovery after cyclophosphamide. Description: Hematopoietic recovery after cyclophosphamide, acyl chain length (Example 38). The note with it: day 7; guanosine 5, acyl derivatives 2.5 μmoles/mouse/day i.p. It is filed as in vivo, Balb/C mice. The method, then:
Cyclophosphamide (CP) (275 mg/kg, i.p.) was administered to 70 Balb/C female mice weighing approximately 20 grams each. Twenty-four hours later and each day thereafter for a total of 6 days, mice were given a 0.4 ml i.p injection of either physiological saline (controls), Tween 80 (0.2%), guanosine (5 μmoles/mouse/day in 0.2% Tween 80), or 2.5 μmoles per mouse per day of one of the following acylated derivatives of guanosine in 0.2% Tween 80: triacetylguanosine, octanoylguanosine, lauroylguanosine, or palmitoylguanosine. On day 7 following CP administration all 10 animals from each of the 7 groups were bled, and then sacrificed by cervical dislocation. Spleens were removed and weighed, and complete blood counts performed.

A further assay has as its system leukocytes. As to conditions: 100 mg i.p.; after 10 hours and for 24 hours thereafter; cited from earlier work.
Assay [2] deals with hematopoietic recovery after cyclophosphamide. Description: Hematopoietic recovery after cyclophosphamide (Example 37). It is filed as in vivo, Balb/C mice. The note with it: 5 μmoles/mouse/day i.p. 6 days; day 7; vs saline. How it is done:
Twenty-four hours later and each day thereafter for a total of 6 days, mice were given a 0.4 ml i.p. injection of either physiological saline (controls), guanine (5 μmoles/mouse/day), or guanosine (5 μmoles/mouse/day). On day 7 all 10 mice in each of the three groups were bled, and then sacrificed by cervical dislocation. Spleens were removed and weighed, and complete blood cell counts performed.

Assay [3] deals with human myeloid leukemia cell line (HL-60). The note with it: HL-60 with inducing agents; cited from earlier work.

Each structure is given as a SMILES string.

`Nc1nc2c(ncn2[C@@H]2O[C@H](CO)[C@@H](O)[C@H]2O)c(=O)[nH]1` [guanosine]: the spleen weight entry in assay [1] was “No significant difference”. Moreover, the “leukocyte counts, leukocytosis” value in the assay with leukocytes is given as 11,000 per mm^3. Moreover, in assay [2], the Neutrophils entry is reported as “significantly more”, the spleen weight result is given as “significantly heavier spleens” and the “total white blood cells” value is recorded as “significantly more”. Moreover, the “effect on induced maturation of HL-60 cells” value in assay [3] is given as “prevented their induced maturation into functional neutrophils”.
